From patent US10188634B2, “3-(3H-imidazo[4,5-C]pyridin-2-yl)-1 H-pyrazolo[4,3-B]pyridines and therapeutic uses thereof” (Samumed, LLC, priority 2015, dated 2019)

Columns and labels:
[1] = test system: primary human mesenchymal stem cells (hMSCs); assay: Induction of chondrogenesis in primary human mesenchymal stem cells (hMSCs), nodule imaging with Rhodamine B / Nile Red; assay type: cell-based; conditions: for Emax: hMSCs chondrogenesis, TGF-β3 (10 ng/mL) as positive control, read-out: Max. Activity as % TGF-β3 activity; for EC50: hMSCs, concentration required to induce 50% levels of chondrogenesis vs TGF-β3 positive control, read-out: Conc (nM) of 50% TGF-β3 activity
Method in brief: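 Passage 3-6 hMSCs cultured 6 days at 37° C in incomplete chondrogenic induction medium with compound (2700-10 nM, 96-well; 5000-2.2 nM, 384-well; 0.03% DMSO), TGF-β3 10 ng/mL as positive control. Fixed nodules stained with Rhodamine B/Nile Red, imaged at 531/625 nm; nodule area normalized to DMSO wells for EC50, maximum activity and dose at maximum.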

[2] = test system: IL-6 in THP-1 cells; assay: Inhibition of IL-6 in LPS-stimulated THP-1 human monocyte cells (HTRF); assay type: cell-based; conditions: IL-6 HTRF; for EC50: 500 ng/mL LPS, 22 hours; for inhibition at 10 µM: LPS, read-out: percent inhibition in brackets (given for EC50 >10 μM)
Method in brief: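 IL-6 was quantified by HTRF ratio after LPS (500 ng/mL, 22 h) stimulation of THP-1 monocytes pretreated 2 h with compound, 10-point 1:3 dilutions from 10 μM, 0.1% DMSO. Cells were held in 1% FBS for 24 h beforehand. Values normalised to DMSO; four-parameter EC50, or % inhibition at 10 μM above that.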

| EC50 [1] | EC50 [2] | SMILES | Emax [1] | inhibition at 10 µM [2] |
| --- | --- | --- | --- | --- |
| 10 nM | 0.341 µM | CN(C)c1cncc(-c2ccc3[nH]nc(-c4nc5c(-c6cccc(F)c6)cncc5[nH]4)c3n2)c1 [Compound 7, 5-(3-(7-(3-Fluorophenyl)-3H-imidazo[4,5-c]pyridin-2-yl)-1H-pyrazolo[4,3-b]pyridin-5-yl)-N,N-dimethylpyridin-3-amine] | 154% | – |
| – | 1.54 µM | CN(C)Cc1cncc(-c2ccc3[nH]nc(-c4nc5c(-c6cccc(F)c6)cncc5[nH]4)c3n2)c1 [Compound 13, 1-(5-(3-(7-(3-Fluorophenyl)-3H-imidazo[4,5-c]pyridin-2-yl)-1H-pyrazolo[4,3-b]pyridin-5-yl)pyridin-3-yl)-N,N-dimethylmethanamine] | 17% | – |
| – | > 10 µM | Fc1cccc(-c2cncc3[nH]c(-c4n[nH]c5ccc(-c6cncc(CN7CCC(F)(F)C7)c6)nc45)nc23)c1 [Compound 26, 5-(5-((3,3-Difluoropyrrolidin-1-yl)methyl)pyridin-3-yl)-3-(7-(3-fluorophenyl)-3H-imidazo[4,5-c]pyridin-2-yl)-1H-pyrazolo[4,3-b]pyridine] | 47% | 21% |
| – | > 10 µM | CC(C)(C)C(=O)Nc1cncc(-c2ccc3[nH]nc(-c4nc5c(-c6ccc(F)cc6)cncc5[nH]4)c3n2)c1 [Compound 36, N-(5-(3-(7-(4-Fluorophenyl)-3H-imidazo[4,5-c]pyridin-2-yl)-1H-pyrazolo[4,3-b]pyridin-5-yl)pyridin-3-yl)pivalamide] | 42% | 35.9% |
| – | > 10 µM | Fc1ccc(-c2cncc3[nH]c(-c4n[nH]c5ccc(-c6cncc(CN7CCCC7)c6)nc45)nc23)cc1 [Compound 42, 3-(7-(4-Fluorophenyl)-3H-imidazo[4,5-c]pyrid-2-yl)-5-(5-(pyrrolidin-1-ylmethyl)pyridin-3-yl)-1H-pyrazolo[4,3-b]pyridine] | 15% | 42% |
| 100 nM | 0.122 µM | CN(C)c1cncc(-c2ccc3[nH]nc(-c4nc5c(N6CCCCC6)cncc5[nH]4)c3n2)c1 [Compound 175, N,N-dimethyl-5-(3-(7-(piperidin-1-yl)-3H-imidazo[4,5-c]pyridin-2-yl)-1H-pyrazolo[4,3-b]pyridin-5-yl)pyridin-3-amine] | 67% | – |
| 21 nM | > 10 µM | CCCC(=O)Nc1cncc(-c2ccc3[nH]nc(-c4nc5c(-c6ccsc6)cncc5[nH]4)c3n2)c1 [Compound 269, N-(5-(3-(7-(Thiophen-3-yl)-3H-imidazo[4,5-c]pyridin-2-yl)-1H-pyrazolo[4,3-b]pyridin-5-yl)pyridin-3-yl)butyramide] | 58% | 45.9% |

Continued, compound first:

| SMILES | EC50 [1] | EC50 [2] | Emax [1] | inhibition at 10 µM [2] |
| --- | --- | --- | --- | --- |
| O=C(Nc1cncc(-c2ccc3[nH]nc(-c4nc5c(-c6cccc(F)c6)cncc5[nH]4)c3n2)c1)C1CC1 [Compound 20, N-(5-(3-(7-(3-Fluorophenyl)-3H-imidazo[4,5-c]pyridin-2-yl)-1H-pyrazolo[4,3-b]pyridin-5-yl)pyridin-3-yl)cyclopropanecarboxamide] | – | > 10 µM | – | 19.6% |
| Fc1ccccc1-c1cncc2[nH]c(-c3n[nH]c4ccc(-c5ccccn5)nc34)nc12 [Compound 84, 3-(7-(2-Fluorophenyl)-3H-imidazo[4,5-c]pyridin-2-yl)-5-(pyridin-2-yl)-1H-pyrazolo[4,3-b]pyridine] | – | > 10 µM | – | 46.8% |
| CC(C)Nc1cncc(-c2ccc3[nH]nc(-c4nc5c(-c6cccnc6)cncc5[nH]4)c3n2)c1 [Compound 96, N-Isopropyl-5-(3-(7-(pyridin-3-yl)-3H-imidazo[4,5-c]pyridin-2-yl)-1H-pyrazolo[4,3-b]pyridin-5-yl)pyridin-3-amine] | 30 nM | 1.75 µM | 65% | – |
| Cc1ccncc1-c1ccc2[nH]nc(-c3nc4c(-c5ccsc5)cncc4[nH]3)c2n1 [Compound 257, 5-(4-Methylpyridin-3-yl)-3-(7-(thiophen-3-yl)-3H-imidazo[4,5-c]pyridin-2-yl)-1H-pyrazolo[4,3-b]pyridine] | – | > 10 µM | 24% | 11.5% |
| c1cc(-c2cncc3[nH]c(-c4n[nH]c5ccc(-c6cncc(CNCC7CCCC7)c6)nc45)nc23)co1 [Compound 305, 1-Cyclopentyl-N-((5-(3-(7-(furan-3-yl)-3H-imidazo[4,5-c]pyridin-2-yl)-1H-pyrazolo[4,3-b]pyridin-5-yl)pyridin-3-yl)methyl)methanamine] | – | > 10 µM | – | 24.5% |
| O=C(CC1CCNCC1)Nc1cncc(-c2ccc3[nH]nc(-c4nc5c(-c6ccccn6)cncc5[nH]4)c3n2)c1 [Compound 565, 2-(Piperidin-4-yl)-N-(5-(3-(7-(pyridin-2-yl)-3H-imidazo[4,5-c]pyridin-2-yl)-1H-pyrazolo[4,3-b]pyridin-5-yl)pyridin-3-yl)acetamide] | – | > 10 µM | – | 34.7% |
| c1ncc(-c2ccc3[nH]nc(-c4nc5c(N6CCCCC6)cncc5[nH]4)c3n2)cc1OCCN1CCCC1 [Compound 582, 3-(7-(Piperidin-1-yl)-3H-imidazo[4,5-c]pyridin-2-yl)-5-(5-(2-(pyrrolidin-1-yl)ethoxy)pyridin-3-yl)-1H-pyrazolo[4,3-b]pyridine] | – | 1.63 µM | – | – |
| Oc1cncc(-c2ccc3[nH]nc(-c4nc5c(N6CCCCC6)cncc5[nH]4)c3n2)c1 [Compound 585, 5-(3-(7-(Piperidin-1-yl)-3H-imidazo[4,5-c]pyridin-2-yl)-1H-pyrazolo[4,3-b]pyridin-5-yl)pyridin-3-ol] | – | 1.38 µM | – | – |
| Cc1cn(-c2cncc3[nH]c(-c4n[nH]c5ccc(C6=CCNCC6)nc45)nc23)cn1 [Compound 590, 3-(7-(4-Methyl-1H-imidazol-1-yl)-3H-imidazo[4,5-c]pyridin-2-yl)-5-(1,2,3,6-tetrahydropyridin-4-yl)-1H-pyrazolo[4,3-b]pyridine] | – | > 10 µM | – | 11.5% |
| Cc1cn(-c2cncc3[nH]c(-c4n[nH]c5ccc(-c6cncc(OCCN(C)C)c6)nc45)nc23)cn1 [Compound 599, N,N-Dimethyl-2-((5-(3-(7-(4-methyl-1H-imidazol-1-yl)-3H-imidazo[4,5-c]pyridin-2-yl)-1H-pyrazolo[4,3-b]pyridin-5-yl)pyridin-3-yl)oxy)ethan-1-amine] | – | > 10 µM | – | 22.5% |
| CN1CCN(c2cncc3[nH]c(-c4n[nH]c5ccc(-c6cnccn6)nc45)nc23)CC1 [Compound 620, 3-(7-(4-Methylpiperazin-1-yl)-3H-imidazo[4,5-c]pyridin-2-yl)-5-(pyrazin-2-yl)-1H-pyrazolo[4,3-b]pyridine] | – | > 10 µM | – | 30.6% |
| O=C(CC1CCNCC1)Nc1cncc(-c2ccc3[nH]nc(-c4nc5c(-c6ccsc6)cncc5[nH]4)c3n2)c1 [Compound 629, 2-(Piperidin-4-yl)-N-(5-(3-(7-(thiophen-3-yl)-3H-imidazo[4,5-c]pyridin-2-yl)-1H-pyrazolo[4,3-b]pyridin-5-yl)pyridin-3-yl)acetamide] | – | > 10 µM | – | 45.5% |
| Cc1ncc(-c2ccc3[nH]nc(-c4nc5c(-c6ccoc6)cncc5[nH]4)c3n2)n1C [Compound 641, 5-(1,2-Dimethyl-1H-imidazol-5-yl)-3-(7-(furan-3-yl)-3H-imidazo[4,5-c]pyridin-2-yl)-1H-pyrazolo[4,3-b]pyridine] | – | > 10 µM | – | 8.9% |
